The text below walks through data of article PMC9864790, “Cell-Penetrating Dabcyl-Containing Tetraarginines with Backbone Aromatics as Uptake Enhancers” (Pharmaceutics, 2022).

Data set [1] concerns MCF-7. The experiment in a line: In vitro cytostatic activity, MTT assay. In kind it is cell-based, human. The settings on record: 3 h incubation with compound (0.4–100 µM), then 3 days culture in serum containing medium, three independent experiments with 4 parallel measurements. As to the method:
(§1) Cells were grown to confluency and were plated into 96-well plates with initial cell number of 5 × 10^3 per well. The cells were incubated at 37 °C for 24 h. Then, cells were treated with the compounds at 0.4–100 µM concentration range for 3 h in 200 µL as the final volume. Control cells were treated with serum free medium at 37 °C for 3 h. After the incubation, the cells were washed with serum free medium twice. To analyze the in vitro cytostatic effect, cells were further cultured for 72 h in serum containing medium. Then, the MTT assay was performed to measure the IC50 values. […] The cells were incubated for 4 h. Then, the plates were centrifuged at 900× g for 5 min, and the supernatant was discarded. To dissolve the formed purple crystals, 100 µL of DMSO was added, and the absorbance was determined at λ = 540 nm and 620 nm using ELISA plate reader (iEMS Reader, Labsystems, Finland). To measure the percentage of cytostasis, the following equation was used for calculation: Cytostatic effect (%) = [1 − (ODtreated/ODcontrol)] × 100; where ODtreated and ODcontrol correspond to the optical densities of the treated and untreated cells, respectively. In each case, three independent experiments were carried out with 4 parallel measurements. […] The curves were defined using MicrocalTM Origin (version 9.2) software: cytostasis was plotted as a function of concentration, fitted to a sigmoidal curve, and based on this curve, the IC50 value was determined.
(In general: Tetrazolium dyes change colour on reduction, which living cells bring about.)

The test system of data set [2] is MDA-MB-231. The data set is described as follows: In vitro cytostatic activity, MTT assay. Particulars: 3 h incubation with compound (0.4–100 µM), then 3 days culture in serum containing medium, three independent experiments with 4 parallel measurements. The data set is classed as cell-based, human. As to the method:
as §1

For data set [3], the system named is MDA-MB-231. The settings on record: 3 h incubation, 3 days culture, MTT assay; cited from earlier work. From the text: Table 3 Cytostatic activity of peptide/drug conjugates on MCF-7 and MDA-MB-231. | column: IC50 ±SD (µM) ^a / MDA-MB-231
For data set [4], the system named is MCF-7. Particulars: 3 h incubation, 3 days culture, MTT assay; cited from earlier work. From the text: Table 3 Cytostatic activity of peptide/drug conjugates on MCF-7 and MDA-MB-231. | column: IC50 ±SD (µM) ^a / MCF-7
Data set [5] deals with MDA-MB-231 cells. The experiment in a line: Effect of ATP depletion (NaN3 and DOG) on cellular uptake (flow cytometry). The settings on record: NaN3 10 mM and DOG 5 mM pretreatment 30 min, then peptide conjugate 5 µM, 90 min, 37 °C. In kind it is cell-based, human. As to the method:
In order to inhibit all pathways of endocytosis, MDA-MB-231 cells were pretreated with sodium azide (NaN3) (10 mM) and 2-Deoxyglucose (DOG) (5 mM) for 30 min and the peptide was added to the wells. The cells were then incubated for 90 min at 37 °C.
Figure 9 Effect of endocytosis inhibitors on the cellular uptake of peptide conjugates. MDA-MB-231 cells were pretreated with NaN3 (10 mM) and DOG (5 mM) for 30 min, the cells were then treated with the peptide conjugates (5 µM) for 90 min. Significant difference from control was measured using Student’s t test (* p < 0.05 and ** p < 0.01).
Background: Flow cytometry measures light scatter and fluorescence of single cells or particles in a stream.

Data set [6] concerns MDA-MB-231 cells. The data set is described as follows: Effect of endocytosis inhibitors on cellular uptake (flow cytometry). The data set is classed as cell-based, human. Particulars: then Cf-labelled peptide conjugate 5 µM, 90 min, 37 °C; for Effect of EIPA on uptake: EIPA 50 µM pretreatment 30 min; for Effect of CPZ on uptake: chlorpromazine (CPZ) 30 µM pretreatment 30 min; for Effect of COL on uptake: colchicine (COL) 20 µM pretreatment 30 min. The source says: Several endocytic routes can be used by CPPs for entry, which then determine their intracellular fate. […] The following inhibitors were applied: 5-(N-ethyl-N-isopropyl)amiloride (EIPA) as […] [39], chlorpromazine (CPZ) to inhibit clathrin-mediated endocytosis, methyl-beta-cyclodextrin (CyD) to deplete cholesterol from the lipid rafts, and thus to inhibit caveolae-mediated endocytosis. Finally, colchicine (COL) was used to ascertain if microtubules are involved in the uptake of the peptides as this agent inhibits microtubule formation.
The effect of inhibitors was studied in the same manner but with pretreatment by an inhibitor for 30 min, and subsequently treated with a peptide conjugate at 5 µM. The cells were then incubated for 90 min at 37 °C. Macropinocytosis was inhibited using 5-(N-Ethyl-N-isopropyl)amiloride (EIPA), clathrin-mediated endocytosis with chlorpromazine (CPZ), colchicine (Col) to assess the role of microtubules, and methyl-β-cyclodextrin (CyD) for the inhibition of caveolae/lipid-raft-mediated endocytosis.
Figure 8 Effect of endocytosis inhibitors on the cellular uptake of peptide conjugates. MDA-MB-231 cells were pretreated with inhibitors EIPA (50 µM), CPZ (30 µM), CyD (5 mM) and COL (20 µM) for 30 min, the cells were then treated with the peptide conjugates (5 µM) for 90 min. Significant difference from control was measured using student’s t test (* p <0.05, ** p < 0.01and **** p< 0.0001).

Data set [7] relates to MDA-MB-231 cells. The experiment in a line: Cellular uptake of fluorescently labelled peptides by flow cytometry. The data set is classed as cell-based, human. Particulars: 90 min, flow cytometry after trypsin treatment.
Experimental: Cellular uptake of peptides was measured using flow cytometry on MCF-7 and MDA-MB-231 cells. Cells were treated with the fluorescently labelled peptides at 1, 5 and 10 µM concentrations for 90 min at 37 °C.
To study the cellular uptake of fluorophore-labelled peptides, 10^5 cells per well were plated on 24-well plates. Cells were incubated for 24 h at 37 °C, followed by treatment with the peptides at different concentrations, in serum-free medium for different time intervals. For negative control, cells were treated with serum-free medium. After the incubation, the peptide solutions were removed and 100 µL trypsin (0.25%) was added for 5–10 min to remove membrane bound peptides and detach the adherent cells from the plates. […] The fluorescence intensity of cells was quantified by flow cytometer (BD LSR II, BD Bioscience, San Jose, CA, USA). Data were analyzed with FACSDiVa 5.0 software.
Cells were treated with 1, 5 and 10 µM peptide solution for 90 min. The fluorescence intensity of the cells was determined by flow cytometry after trypsin treatment. […]
Cells were treated with 1, 5 and 10 µM peptide solutions for 90 min. The fluorescence intensity of the cells was determined by flow cytometry after trypsin treatment.

Like-named read-outs stand apart in the source and are kept apart here. Starred links: 1 amine or outer side, 2 acyl side, 3 side chain; linkers in the order of their positions; H or OH if unused. Non-standard residues stand in square brackets, D forms with d. Residues, ends and D or L forms follow the SMILES beside them. Groups on a side chain read outwards from the residue. *: point of attachment. Daunorubicin = COc1cccc2c1C(=O)c1c(O)c3c(c(O)c1C2=O)C[C@@](O)(C(C)=O)C[C@@H]3O[C@H]1C[C@H](N*)[C@H](O)[C@H](C)O1; Dabcyl = CN(C)c1ccc(N=Nc2ccc(C(=O)*)cc2)cc1; X1 = O=C(c1ccc2cc(N[*:1])ccc2c1)[*:2]; Suc = O=C(CCC(=O)[*:2])[*:1]; 4Amb = NCc1ccc(C(=O)O)cc1; 4Abz = Nc1ccc(C(=O)O)cc1

The term IC50 denotes the concentration that inhibits the measured activity by half. Take `COc1cccc2c1C(=O)c1c(O)c3c(c(O)c1C2=O)C[C@@](O)(C(C)=O)C[C@@H]3O[C@H]1C[C@H](NC(=O)CCC(=O)NCCCC[C@H](NC(=O)[C@H](CCCNC(=N)N)NC(=O)[C@H](CCCNC(=N)N)NC(=O)[C@H](CCCNC(=N)N)NC(=O)[C@H](CCCNC(=N)N)NC(=O)c2ccc(CNC(=O)c3ccc(N=Nc4ccc(N(C)C)cc4)cc3)cc2)C(N)=O)[C@H](O)[C@H](C)O1` [Dabcyl-AMBA-Arg-Arg-Arg-Arg-Lys(DauSuc)] ({Dabcyl-4Amb}-RRRRK([Suc-Daunorubicin])-NH2): the IC50 with MCF-7 [1] worked out at 10.3 ± 5 µM; in the data set on MDA-MB-231 [2], 10.1 ± 6 µM.
Take `COc1cccc2c1C(=O)c1c(O)c3c(c(O)c1C2=O)C[C@@](O)(C(C)=O)C[C@@H]3O[C@H]1C[C@H](NC(=O)CCC(=O)NCCCC[C@H](NC(=O)[C@H](CCCNC(=N)N)NC(=O)[C@H](CCCNC(=N)N)NC(=O)[C@H](CCCNC(=N)N)NC(=O)[C@H](CCCNC(=N)N)NC(=O)c2ccc3cc(NC(=O)c4ccc(N=Nc5ccc(N(C)C)cc5)cc4)ccc3c2)C(N)=O)[C@H](O)[C@H](C)O1` [Dabcyl-NAPH- Arg-Arg-Arg-Arg-Lys(DauSuc)] (Dabcyl-[X1]RRRRK([Suc-Daunorubicin])-NH2): the IC50 worked out at 15 ± 4.2 µM in the data set with MCF-7 [1] and 16.6 ± 0.5 µM with MDA-MB-231 [2].
In the same order, the values of `COc1cccc2c1C(=O)c1c(O)c3c(c(O)c1C2=O)C[C@@](O)(C(C)=O)C[C@@H]3O[C@H]1C[C@H](NC(=O)CCC(=O)NCCCC[C@H](NC(=O)[C@H](CCCNC(=N)N)NC(=O)[C@H](CCCNC(=N)N)NC(=O)[C@H](CCCNC(=N)N)NC(=O)[C@H](CCCNC(=N)N)NC(=O)c2ccc(NC(=O)c3ccc(N=Nc4ccc(N(C)C)cc4)cc3)cc2)C(N)=O)[C@H](O)[C@H](C)O1` [Dabcyl-PABA- Arg-Arg-Arg-Arg-Lys(DauSuc)] ({Dabcyl-4Abz}-RRRRK([Suc-Daunorubicin])-NH2) are 17.7 ± 1.2 µM and 14.3 ± 1.1 µM.
Turning to `CN(Cc1cnc2nc(N)nc(N)c2n1)c1ccc(C(=O)N[C@@H](CCC(=O)O)C(=O)O)cc1` [MTX, methotrexate], the IC50 was above 100 µM with MDA-MB-231 [3] and 0.8 ± 0.3 µM in the data set on MCF-7 [4].
Regarding Dabcyl-AMBA-RRRRK, the “Uptake after pretreatment with NaN3 and DOG” value with MDA-MB-231 cells [5] is on record as “significantly lower”. In addition, in the data set on MDA-MB-231 cells [6], the “Effect of EIPA on uptake” value was “decreased the uptake”, the “Effect of CPZ on uptake” value was “did not cause any inhibition” and the “Effect of COL on uptake” value is “did not cause any inhibition”.
Turning to Dabcyl-PABA-RRRRK, the “Uptake after pretreatment with NaN3 and DOG” value with MDA-MB-231 cells [5] is “significantly lower”. Besides, in the data set on MDA-MB-231 cells [6], the “Effect of EIPA on uptake” value is on record as “did not alter the internalization”, the “Effect of CPZ on uptake” value is “did not cause any inhibition” and the “Effect of COL on uptake” value was “did not cause any inhibition”. The “Uptake relative to Arg8” value in the data set with MDA-MB-231 cells [7] (CY5-labelled peptide, at all concentrations (1, 5 and 10 µM)) was 3 to 4.5 folds. In the data set on MDA-MB-231 cells [7] (Cf-labelled peptide, 10 µM, 37 °C, fluorescence intensity relative to Dabcyl-RRWRRK(Cf) at 10 µM (100%)), this compound yielded a Relative uptake intensity of 340%.
Dabcyl-Trp-Arg-Arg-Arg-Arg-Lys(DauSuc): the IC50 with MDA-MB-231 [3] is 18 ± 6.7 µM; in the data set with MCF-7 [4] it was 26.4 ± 4.2 µM.
Dabcyl-Trp-Arg-Arg-Arg-Arg-Lys(MTX): the IC50 with MDA-MB-231 [3] is 7.4 ± 2.2 µM; in the data set on MCF-7 [4], 36.9 ± 3 µM.
With Succinylated daunomycin [DauSuc], the IC50 in the data set with MDA-MB-231 [3] is above 100 µM; in the data set with MCF-7 [4], 24.5 ± 7.1 µM.
